Laboratory results: patent US12201592B2, “Combinations of IRS/STAT3 dual modulators and anti-cancer agents for treating cancer” (TYRNOVO LTD., priority 2015, dated 2025)
Read-outs that look alike come from different tables or passages of the source.

Columns and labels:
[1] = system: Mel1617-BR; experiment: Cell proliferation and viability, methylene-blue staining; assay type: cell-based; conditions: Homo sapiens, 72 h, melanoma, 3 days exposure
Experimental: (§1) All melanoma cells used and discussed in FIGS. 6-9 and table 1 are from human origin and bearing the mutated BRAF^600K/E.
(§2) Cells were grown in complete medium and treated with inhibitors one day following seeding. 72 hours later, the surviving cells were quantified by methylene blue staining or by WST-1 staining for nonadherent cells (Roche).
(§3) Cells were plated in 96-well plates in 5-10% FCS in medium; a day later exposed to various concentrations of compound A, compound D or OSI-906 and 3 days later stained with methylene-blue and the relative cell number was quantified.

[2] = system: Mel1617-Pa; experiment: as above; assay type: cell-based; conditions: Homo sapiens, 72 h, melanoma, 3 days exposure
Experimental: as §1, §2, §3

[3] = system: 451Lu-BR; experiment: as above; assay type: cell-based; conditions: Homo sapiens, 72 h, melanoma, 3 days exposure
Experimental: (§4) All cell lines were obtained from the American Type Culture Collection. YUMAC, YURIF, YUSIK (all human melanoma, kindly provided by Prof. Ruth Halaban, Yale University, New Haven, Conn.) were cultured in OptiMEM containing 5% FCS. M571, M2068, M560n (all human melanoma, kindly provided by Dr. Michal Lotem, Hadassah Hospital, Jerusalem, Israel) were maintained in RPMI, DMEM and F12 (1:3:1) containing 10% FCS. 451-Lu (human melanoma) and 451-Lu-BR (PLX4032-resistant melanoma; ref. 32) were maintained in RPMI containing 5% FCS (media for resistant lines contained […] PLX4032). All media were supplemented with 100 U/mL penicillin and […] and all cells were grown at 37° C./5% CO2.
as §1, §2, §3

[4] = system: 451Lu-Pa; experiment: as above; assay type: cell-based; conditions: Homo sapiens, 72 h, melanoma, 3 days exposure
Experimental: as §4, §1, §2, §3

[5] = system: HCT15; experiment: as above; assay type: cell-based; conditions: Homo sapiens, HCT-15, 72 h; HCT15, colon cancer; 3 days exposure
Experimental: as §3, with “Cells were grown in complete medium and treated with inhibitors one day following seeding. 72 hours later, the surviving cells were quantified by methylene blue staining or by WST-1 staining for nonadherent cells (Roche). Cells” for “Cells”

[6] = system: MM1S; experiment: Cell proliferation and viability; assay type: cell-based; conditions: Homo sapiens, MM1.S, 72 h, multiple myeloma, 3 days exposure
Experimental: as §2, §3

[7] = system: HepG2; experiment: Cell proliferation and viability, methylene-blue staining; assay type: cell-based; conditions: Homo sapiens, 72 h; HepG2, hepatocarcinoma; 3 days exposure
Experimental: as §2, §3

[8] = system: PC3; experiment: as above; assay type: cell-based; conditions: Homo sapiens, PC-3, 72 h; PC3, prostate cancer; 3 days exposure
Experimental: as §2, §3

[9] = system: phospho-Y705 Stat3 (pSTAT3) in melanoma A375 cells; experiment: Immunoblot of Stat3 Y705-phosphorylation in intact cells; assay type: cell-based, human; conditions: Homo sapiens, A-375
Experimental: FIGS. 6A-6E. […] A. Human melanoma A375 cells were treated with the indicated concentrations of compounds A or D for 1.3 and 4.5 hr. Cells were lysed and immunoblotted with antibodies against phospho-Y705 Stat3 (pSTAT3) and Stat3. […] B. Cells were treated with 2 μM Compound A and lysed following the indicated times. C. A375 cells were treated with compound D for 4 hr, then washed with medium several times and lysed after 4, 24 and 48 hr of incubation without inhibitors.
(§5) • Cells were treated as indicated in FIGS. 6-9 and the corresponding figure legends, following overnight serum-starvation (unless indicated differently). When cells were treated with both PLX4032 and compounds A or D, PLX4032 was added 3-4 hr following the compounds. • Cells were lysed with boiling sample buffer (10% glycerol, 50 mmol/L Tris-HCl, pH 6.8, 3% SDS, and 5% 2-mercaptoethanol). Western blot analysis was conducted in 8% SDS-PAGE, using antibodies described below. • Aliquots of cell extracts containing equal amounts of protein were resolved by 8% SDS/PAGE and electroblotted onto nitrocellulose filters. The membranes were blocked with low-fat milk diluted 1:20 in TBST (NaCl/Tris containing 0.2% Tween-20) for 0.5 hr, incubated with Rabbit anti-phosphoY705-Stat3 antibody (Cell signaling cat #9131), Mouse anti-ERK-diphosphorylated-YT (Sigma Aldrich cat #M8159) or anti-PARP antibodies overnight at 4 C in 5% BSA in TBST containing 0.05% azid, washed extensively with TBST and then incubated with horseradish peroxidase-conjugated secondary antibodies for 45 min at room temperature in 5% BSA in TB ST. • Immunoreactive bands were visualized using enhanced chemiluminescence. Membranes were re-blotted with Mouse anti-Stat3 antibody (Transduction labs cat #21320) or with Rabbit anti AKT1/2 (Santa cruz cat #sc-8312) or Anti-Actin as described above. IV. Chemotaxis of Peripheral Blood Mononuclear Cells (PBMCs)

[10] = system: pStat3 in A375, 451-Lu, Mel1617 cells; experiment: Immunoblot of basal and PLX4032-induced pStat3 in PLX4032-sensitive melanoma cells; assay type: cell-based, human; conditions: PLX4032 1 μM added 3-4 hr after the compounds (FIG. 7C-E, 8A)
Experimental: FIGS. 7A-7E. […] FIG. 7A. […] FIG. 7B. […] Cells from patients were grown in complete medium and immunoblotted as described above. […] Compounds A/D block the basal and the PLX4032-induced pStat3. Treatment of PLX4032-sensitive human melanoma A375 (C), 451-Lu (D) or Mel1617 (E) cells with 1 μM PLX4032 for 18-24 hr induces a dramatic increase in pStat3. Compounds A (FIG. 7C, D) or D (FIG. 7E) block both the basal and the PLX4032-induced pStat3. OSI-906, an ATP-competitive inhibitor of IGF1R, has no effect on pStat3.
as §5

[11] = system: pStat3 in 451-LU-BR, Mel1617-BR and patient cells M2068, M571; experiment: Immunoblot of pStat3 in BRAFi-resistant melanoma cells; assay type: cell-based, human
Experimental: FIGS. 8A-8D. […] FIG. 8C. […] FIG. 8D. Cells of various cancer types were treated with compound D for 4 hr in serum-free medium, and 20 hr in medium with or without 10% serum. Asterisks indicate 10 μM concentration for RPMI8226 and HepG2 cells.
as §5

[12] = system: A375 melanoma cells; experiment: Apoptosis after short exposure and wash-out; assay type: cell-based, human; conditions: 4 hr exposure, washed; 24 and 48 hr later (FIG. 6C)
Experimental: as §5, with “Chemotaxis of Peripheral Blood Mononuclear Cells (PBMCs)” left out

[13] = system: Uteral AdenoSarcoma biopsy; experiment: PDX efficacy study with Afinitor, repeat (Example 5A); assay type: in vivo, NodScid mice; conditions: Afinitor 5 mg/kg PO, Compound D 70 mg/kg IV
Experimental: The experiment described in Example 4 was repeated in purchased mice from Harlan.
• 1. […] Afinitor 5 mg/kg PO, 4 times a week (17 mice). • 4.

[14] = system: HNSCC tumor biopsy; experiment: PDX efficacy study, tumor recurrence after Cetuximab±Afatinib (Example 7); assay type: in vivo, NodScid mice; conditions: 9 days of treatment; start ~113 mm^3
Experimental: Experimental system: Patient-derived xenograft (PDX) of HNSCC tumor biopsy subcutaneous implanted into NodScid mice.
• Implantation of HNSCC tumor biopsy graft (P6) into NodScid mice for efficacy study: Few months following implantation of frozen HNSCC tumor biopsy graft (P1) in mice, tumor cells (P6) were injected into NodScid mice (generated by in-house breeding), using the same procedure described for implantation of P1. The original biopsy is the same as described above and the P indicates passages (implantation number in mice). • Onset of tumor growth (palpable tumor mass) was detected four days following cell injection. Five days later, treatments initiated in mice which developed tumors sized around 113 mm^3. […] Treatments and Procedures
Treatment groups included: • 1. Vehicle-control: Vehicle (0.5% Hydroxymethyl-cellulose, 0.4% Tween-80) 200 μl PO (5 times/week, qd). • 2. Compound D 70 mg/kg in HPbCD, IV (3 times/week, qod). • 3.
(§6) The length (l) and the width (w) of the tumors were measured 2-4 times a week and the volumes of the tumors were calculated as follows: v=lw^2/2.

[15] = system: Adenoid Cyctic Carcinoma tumor biopsy; experiment: PDX efficacy study with Trametinib (Example 9); assay type: in vivo, NodScid mice; conditions: day0-day13; start ~65 mm^3; Trametinib 1 mg/kg PO, Compound D 70 mg/kg IV
Excerpt: Experimental system: Patient-derived xenograft (PDX) of Adenoid Cyctic Carcinoma tumor biopsy subcutaneous implanted into NodScid mice.
• Biopsy: Fresh human primary Adenoid Cyctic Carcinoma tumor biopsy. […] The mice were randomly divided into treatment groups including 5 animals/group. The vehicle-treated group included 4 mice. II. Treatments and Procedures
Treatment groups included: • 1. Vehicle-control: vehicle of Trametinib (5% Propylene Glycol, 0.5% Tween-80, 30% PEG 400 in Sterile DDW) 200 μl PO (5 times/week, qd). • 2. […] Trametinib 1 mg/kg PO (5 times/week, qd). • 4.
as §6

[16] = system: colon metastatic carcinoma biopsy; experiment: PDX efficacy study with Cetuximab and FOLFIRI (Example 12); assay type: in vivo, NodScid mice; conditions: start ~110 mm^3; 14 days
Experimental: Experimental system: Patient-derived xenograft (PDX) of human primary colon metastatic carcinoma biopsy subcutaneous implanted into NodScid mice.
The length (l) and the width (w) of the tumors were measured 4 times a week and the volume of the tumors were calculated as follows: v=lw^2/2.

[17] = system: Uteral AdenoSarcoma biopsy; experiment: PDX efficacy study with Afinitor (Examples 4 and 5); conditions: phase I
Experimental: Treatments and Procedures
Treatment groups included: • 1. Control: 20% HPbCD 50 ul IP, qod (6 mice). • 2. […] Afinitor 5 mg/kg PO, qod (15 mice). • 4. Afinitor 5 mg/kg PO (qod)+Compound D 70 mg/kg IV (qod), 6 mice. Afinitor was administered ˜4 hr following Compound D.
All treatments were initiated simultaneously on day0.
The length (l) and the width (w) of the tumors were measured every other day and the volumes of the tumors were calculated as follows: v=lw^2/2.
Following treatments described in phase I (example 4), the mice whose tumors reached the end point were sacrificed, and the following treatments were continued.
• 1. The Afinitor-responder group (group A, open squares) was administered with Afinitor 5 mg/kg PO, qd (8 mice). • 2. The combined treatment group (open circles) continued to get the Afinitor 5 mg/kg PO (qod)+Compound D 70 mg/kg IV (qod) treatment (6 mice). Afinitor was administered ˜4 hr following Compound D. Phase III:
The group was divided to two groups of 4 mice each which received the following treatments on day6 onwards: • The first continued to get Afinitor 5 mg/kg PO, qd (4 mice) • and the second got Afinitor 5 mg/kg PO (qod)+Compound D 70 mg/kg IV (qod) combined treatment (4 mice). Afinitor was administered ˜4 hr following Compound D.

[18] = system: Squamous Cell carcinoma of Head&Neck (SCCHN) tumor biopsy; experiment: PDX efficacy study, acquired resistance to Erlotinib (Example 1); conditions: start ~80 mm^3; Erlotinib 100 mg/kg PO, Compound D 70 mg/kg IV; two weeks
[19] = system: pancreatic cancer metastasis from the liver; experiment: PDX efficacy study with Gemcitabine (Example 10); assay type: in vivo, NodScid mice
Experimental: Experimental system: Patient-derived xenograft (PDX) of a biopsy of pancreatic cancer metastasis from the liver, subcutaneous implanted into NodScid mice.
• Implantation of pancreatic cancer metastasis from the liver RA_160 tumor biopsy graft (P5) into NodScid mice for efficacy study: Several weeks following implantation of pancreatic cancer liver metastasis biopsy graft in mice, tumor cells (P5) were injected into NodScid mice (generated by in-house breeding), using the same procedure described above. • Onset of tumor growth (palpable tumor mass) was detected ten days following cell injection. A week later (on da0), 19 mice with average tumor size of 90 mm^3 initiated treatments with Gemcitabine 25 mg/kg IP twice a week for 35 days. […] On day21 the average tumor size in Gemcitabine-treated group was ˜5 mm^3 as compared to 1400 mm^3 in the control group. • 42 days following initiation of treatment with Gemcitabine resistance developed and regressed tumors progressed. Four days later 16 mice of the Gemcitabine-treated group with average tumor volume of ˜110 mm^3 were divided to two groups as follows. II. Treatments
Treatment groups, following resistance to Gemcitabine has been acquired, included: • 1. Gemcitabine 25 mg/kg IP twice a week • 2. Gemcitabine 25 mg/kg IP+Compound D 70 mg/kg IV, twice a week.

[20] = system: tumor pieces of pancreatic cancer liver metastasis PDX; experiment: Culture of tumor pieces excised at the end of the experiment (Example 10); assay type: cell-based; conditions: three tumors per group; fixed and stained nine days later
Experimental: At the end of the experiment, tumor pieces, similar in size, from three tumors per group were cultured in separate plates to test their viability and proliferative activity.

Oc1cc(CNC(=S)/C=C/c2ccc(O)c(O)c2Br)cc(O)c1O [Compound D] was tested, and the IC50 [1] was 300 nM, the IC50 [2] was 200 nM and the IC50 [3] was 600 nM. It also gave an IC50 [4] of 300 nM, an IC50 [5] of 800 nM and an IC50 [6] of 200 nM. The IC50 [7] was 700 nM, the IC50 [8] was 500 nM and the IC50 ([9]; A375 cells, 1.3 hr post-treatment (FIG. 6A), read-out: IC50 of inhibition of Stat3 phosphorylation (pStat3)) was ~2000 nM. For the same compound, the IC50 ([9]; A375 cells, 3 hr later (4.5 hr treatment, FIG. 6A), read-out: IC50 of inhibition of Stat3 phosphorylation (pStat3)) was < 1000 nM, the IC50 ([9]; FIG. 6D, read-out: IC50 of dose-dependent inhibition of pStat3) was < 1000 nM and the “effect on basal and PLX4032-induced pStat3 levels” value [10] was “block both the basal and the PLX4032-induced levels of pStat3”. The “effect on Stat3 phosphorylation in PLX4032-resistant melanoma cells” value ([11]; 451-LU-BR, Mel1617-BR, patient cells M2068 and M571 (FIG. 8A-C)) was “block Stat3 phosphorylation completely”, the “relative activity on pStat3 in melanoma cells from patients who acquired resistance to PLX4032” value ([11]; FIG. 8C) was “better activity of compound D compared with compound A” and the “cell apoptosis after short exposure” value [12] was “sufficient to induce cell apoptosis 24 and 48 hr later”. The “effect on tumor growth” value [13] was “no effect on tumor growth”, the “tumor response while on treatment” value [14] was “aggressively progressed” and the “tumor response, first phase” value [15] was “moderate tumor growth inhibition”. The “effect on tumor growth” value [16] was “No effect on tumor growth”, the responder mice [17] was “none of the mice responded” and the “effect on tumor growth” value ([17]; four days, Afinitor 5 mg/kg PO, Compound D 70 mg/kg IV) was “no significant effect on tumor growth”. For the same compound, the “tumor response (tumor volume)” value [18] was “has not responded”.

Nc1ccn([C@@H]2O[C@H](CO)[C@@H](O)C2(F)F)c(=O)n1 [Gemcitabine] was tested, and the “average tumor size on day21” value ([19]; Gemcitabine 25 mg/kg IP twice a week, control 1400 mm^3) was ~5 mm^3, the “tumor response on day11” value ([19]; Gemcitabine 25 mg/kg IP twice a week, start 90 mm^3) was “all tumors in Gemcitabine-treated mice regressed” and the “response of Gemcitabine-resistant tumors” value ([19]; start ~110 mm^3, after resistance was acquired) was “all tumors treated with Gemcitabine progressed”. The “time from initiation of treatment until resistance developed” value ([19]; treated for 35 days) was 42 days and the “proliferative activity of cultured tumor pieces” value [20] was “massive proliferation”.
